Values quoted from earlier work as cited in PMC10323144, “Garbage in, garbage out: how reliable training data improved a virtual screening approach against SARS-CoV-2 MPro” (Frontiers in Pharmacology, 2023).
Where a name gives a salt, the structure may show the parent alone. Peptide text beside a SMILES is read from it. * marks the point of attachment. Cbz = O=C(OCc1ccccc1)*

System: MPro
Conditions: compiled from peer-reviewed sources (287 compounds) ref the 18 original articles; cited from earlier work

Compound	Class (MPro activity class)
O=c1cc(-c2ccc(O)cc2)oc2cc(O)c(O)c(O)c12 [Scutellarein]	1 (Compounds with IC50 < 10 µM or with a percentage of enzyme inhibition >50% at 10 µM were labelled as ACTIVE)
CCC[C@H](NC(=O)[C@@H]1[C@H]2CCC[C@H]2CN1C(=O)[C@@H](NC(=O)[C@@H](NC(=O)c1cnccn1)C1CCCCC1)C(C)(C)C)C(=O)C(=O)NC1CC1 [Telaprevir]	0 (compounds with IC50 > 20 μM, percentage inhibition <80% at 20 µM or 50 μM, or percentage enzyme inhibition <50% at 10 µM were labelled as INACTIVE)
CNc1ccc(N(Cc2ccsc2)C(=O)Cn2nnc3ccccc32)cc1 [16j]	1 (Compounds with IC50 < 10 µM or with a percentage of enzyme inhibition >50% at 10 µM were labelled as ACTIVE)
Cc1ccccc1COc1cc(Cl)cc(-c2cc(-c3c[nH]c(=O)[nH]c3=O)cn(-c3cccnc3)c2=O)c1 [compound 16]	1 (Compounds with IC50 < 10 µM or with a percentage of enzyme inhibition >50% at 10 µM were labelled as ACTIVE)
CC/C(=C(\c1ccccc1)c1ccc(OCCN(C)C)cc1)c1ccccc1 [TAMOXIFEN CITRATE]	0 (compounds with IC50 > 20 μM, percentage inhibition <80% at 20 µM or 50 μM, or percentage enzyme inhibition <50% at 10 µM were labelled as INACTIVE)
Cc1ccncc1NC(=O)Cc1cc(Cl)cc(OC2CC(=O)N2)c1 (centres unmarked) [TRY-UNI-2eddb1ff-7]	1 (Compounds with IC50 < 10 µM or with a percentage of enzyme inhibition >50% at 10 µM were labelled as ACTIVE)
C[C@H](Cn1cnc2c(N)ncnc21)OCP(=O)(O)O [Tenofovir]	0 (compounds with IC50 > 20 μM, percentage inhibition <80% at 20 µM or 50 μM, or percentage enzyme inhibition <50% at 10 µM were labelled as INACTIVE)
O=C(Oc1cncc(Cl)c1)c1cccc2[nH]ccc12 [10_GRL0496]	1 (Compounds with IC50 < 10 µM or with a percentage of enzyme inhibition >50% at 10 µM were labelled as ACTIVE)
O=CC(CC1CCNC1=O)NC(=O)C(Cc1cccc(F)c1)NC(=O)c1cc2ccccc2[nH]1 (centres unmarked) [11b]	1 (Compounds with IC50 < 10 µM or with a percentage of enzyme inhibition >50% at 10 µM were labelled as ACTIVE)
CCOC(=O)/C=C/[C@H](C[C@@H]1CCNC1=O)NC(=O)[C@@H](CC(=O)[C@@H](NC(=O)c1cc(C)on1)C(C)C)Cc1ccc(F)cc1 [Rupintrivir]	0 (compounds with IC50 > 20 μM, percentage inhibition <80% at 20 µM or 50 μM, or percentage enzyme inhibition <50% at 10 µM were labelled as INACTIVE)
O=C(Nc1ccc(N(Cc2ccsc2)C(=O)Cn2nnc3ccccc32)cc1)C1CC1 [16e (ML300)]	1 (Compounds with IC50 < 10 µM or with a percentage of enzyme inhibition >50% at 10 µM were labelled as ACTIVE)
Nc1ccn([C@H]2C[C@H](O)[C@@H](COP(=O)(O)OP(=O)(O)OP(=O)(O)OP(=O)(O)OC[C@H]3O[C@@H](n4ccc(=O)[nH]c4=O)[C@H](O)[C@@H]3O)O2)c(=O)n1 [denufosol (DB04983), denufosol]	0 (compounds with IC50 > 20 μM, percentage inhibition <80% at 20 µM or 50 μM, or percentage enzyme inhibition <50% at 10 µM were labelled as INACTIVE)
Forsythoside B	1 (Compounds with IC50 < 10 µM or with a percentage of enzyme inhibition >50% at 10 µM were labelled as ACTIVE)
O=C(C=Cc1ccc(O)c(O)c1)OC1CC(O)(C(=O)O)CC(O)C1OC(=O)C=Cc1ccc(O)c(O)c1 (centres unmarked) [Isochlorogenic acid B]	0 (compounds with IC50 > 20 μM, percentage inhibition <80% at 20 µM or 50 μM, or percentage enzyme inhibition <50% at 10 µM were labelled as INACTIVE)
Phillyrin	0 (compounds with IC50 > 20 μM, percentage inhibition <80% at 20 µM or 50 μM, or percentage enzyme inhibition <50% at 10 µM were labelled as INACTIVE)
Cn1nc(C(C)(C)C)cc1C(=O)NC(Cc1cccc(Cl)c1)C(=O)NCC#N (centres unmarked) [Cathepsin inhibitor 1]	0 (compounds with IC50 > 20 μM, percentage inhibition <80% at 20 µM or 50 μM, or percentage enzyme inhibition <50% at 10 µM were labelled as INACTIVE)
O=C(O)[C@H]1O[C@@H](Oc2cc3oc(-c4ccc(O)cc4)cc(=O)c3c(O)c2O)[C@H](O)[C@@H](O)[C@@H]1O [Scutellarin]	0 (compounds with IC50 > 20 μM, percentage inhibition <80% at 20 µM or 50 μM, or percentage enzyme inhibition <50% at 10 µM were labelled as INACTIVE)
N=C(N)c1ccc2cc(OC(=O)c3ccc(N=C(N)N)cc3)ccc2c1 [Nafamostat]	0 (compounds with IC50 > 20 μM, percentage inhibition <80% at 20 µM or 50 μM, or percentage enzyme inhibition <50% at 10 µM were labelled as INACTIVE)
CC(C)C[C@@H](C=O)NC(=O)[C@H](CC(C)C)NC(=O)[C@H](CC(C)C)NC(=O)OCc1ccccc1 [MG-132] (Cbz-Leu-Leu-Leu-aldehyde)	1 (Compounds with IC50 < 10 µM or with a percentage of enzyme inhibition >50% at 10 µM were labelled as ACTIVE)
O=C(Cn1ccnc1[N+](=O)[O-])NCc1ccccc1 [BENZNIDAZOLE]	0 (compounds with IC50 > 20 μM, percentage inhibition <80% at 20 µM or 50 μM, or percentage enzyme inhibition <50% at 10 µM were labelled as INACTIVE)
O=C(CCl)N1CCN(Cc2cccc(Cl)c2)CC1 [MED-COV-4280ac29-15]	1 (Compounds with IC50 < 10 µM or with a percentage of enzyme inhibition >50% at 10 µM were labelled as ACTIVE)

Compound	Class (MPro activity class)
O=C1c2c(O)cc(O)cc2O[C@H](c2cc(O)c(O)c(O)c2)[C@H]1O [Dihydromyricetin]	1 (Compounds with IC50 < 10 µM or with a percentage of enzyme inhibition >50% at 10 µM were labelled as ACTIVE)
CN(C)c1ccc(N(Cc2ccsc2)C(=O)Cn2nnc3ccccc32)cc1 [ALP-POS-d2866bdf-1]	1 (Compounds with IC50 < 10 µM or with a percentage of enzyme inhibition >50% at 10 µM were labelled as ACTIVE)
CC(NC(=O)Cc1cc(F)cc(F)c1)C(=O)NC(C(=O)OC(C)(C)C)c1ccccc1 (centres unmarked) [DAPT (GSI-IX)]	0 (compounds with IC50 > 20 μM, percentage inhibition <80% at 20 µM or 50 μM, or percentage enzyme inhibition <50% at 10 µM were labelled as INACTIVE)
O=c1[nH]cc(-c2cc(-c3cc(Cl)cc(OCc4ccccc4)c3)c(=O)n(-c3cccnc3)c2)c(=O)[nH]1 [compound 14]	1 (Compounds with IC50 < 10 µM or with a percentage of enzyme inhibition >50% at 10 µM were labelled as ACTIVE)
CC(=O)N[C@@H](CC(C)C)C(=O)N[C@@H](CC(C)C)C(=O)N[C@H](C=O)CCCNC(=N)N [Leupeptin]	0 (compounds with IC50 > 20 μM, percentage inhibition <80% at 20 µM or 50 μM, or percentage enzyme inhibition <50% at 10 µM were labelled as INACTIVE)
CC(C)C[C@H](NC(=O)[C@H](CCc1ccccc1)NC(=O)CN1CCOCC1)C(=O)N[C@@H](Cc1ccccc1)C(=O)N[C@@H](CC(C)C)C(=O)[C@@]1(C)CO1 [carfilzomib]	0 (compounds with IC50 > 20 μM, percentage inhibition <80% at 20 µM or 50 μM, or percentage enzyme inhibition <50% at 10 µM were labelled as INACTIVE)
CC(C)Nc1cccnc1N1CCN(C(=O)c2cc3cc(NS(C)(=O)=O)ccc3[nH]2)CC1 [Delavirdine]	0 (compounds with IC50 > 20 μM, percentage inhibition <80% at 20 µM or 50 μM, or percentage enzyme inhibition <50% at 10 µM were labelled as INACTIVE)
O=C(CCl)N1CCN(S(=O)(=O)c2cccc(F)c2)CC1 [LON-WEI-8f408cad-4]	1 (Compounds with IC50 < 10 µM or with a percentage of enzyme inhibition >50% at 10 µM were labelled as ACTIVE)
CCC(C)n1ncn(-c2ccc(N3CCN(c4ccc(OCC5COC(Cn6cncn6)(c6ccc(Cl)cc6Cl)O5)cc4)CC3)cc2)c1=O (centres unmarked) [Itraconazole]	0 (compounds with IC50 > 20 μM, percentage inhibition <80% at 20 µM or 50 μM, or percentage enzyme inhibition <50% at 10 µM were labelled as INACTIVE)
COc1cc2c(cc1Cc1cccc(Cl)c1F)c(=O)c(C(=O)O)cn2[C@H](CO)C(C)C [Elvitegravir]	0 (compounds with IC50 > 20 μM, percentage inhibition <80% at 20 µM or 50 μM, or percentage enzyme inhibition <50% at 10 µM were labelled as INACTIVE)
Cc1csc(C(=O)NN=Cc2cccnc2)c1N [LASSBio-1891 (14)]	0 (compounds with IC50 > 20 μM, percentage inhibition <80% at 20 µM or 50 μM, or percentage enzyme inhibition <50% at 10 µM were labelled as INACTIVE)
COCCc1ccc(Cl)cc1CN1CCN(C(=O)CCl)CC1 [MED-COV-4280ac29-37]	1 (Compounds with IC50 < 10 µM or with a percentage of enzyme inhibition >50% at 10 µM were labelled as ACTIVE)
O=C1N(Cc2cccc(Cl)c2)CCN1c1nccc2[nH]ncc12 [ALP-POS-91609ae9-3]	1 (Compounds with IC50 < 10 µM or with a percentage of enzyme inhibition >50% at 10 µM were labelled as ACTIVE)
Nc1cc(C(F)(F)F)c(-c2nc(N3CCOCC3)nc(N3CCOCC3)n2)cn1 [BIMIRALISIB]	0 (compounds with IC50 > 20 μM, percentage inhibition <80% at 20 µM or 50 μM, or percentage enzyme inhibition <50% at 10 µM were labelled as INACTIVE)
O=C(Cn1nnc2ccccc21)N(Cc1ccsc1)c1ccc(-c2ccccc2)cc1 [17a]	1 (Compounds with IC50 < 10 µM or with a percentage of enzyme inhibition >50% at 10 µM were labelled as ACTIVE)
Cc1nnc(C(=O)NC(C)(C)c2nc(C(=O)NCc3ccc(F)cc3)c(O)c(=O)n2C)o1 [Raltegravir]	0 (compounds with IC50 > 20 μM, percentage inhibition <80% at 20 µM or 50 μM, or percentage enzyme inhibition <50% at 10 µM were labelled as INACTIVE)
COC(=O)NC(C(=O)NC(Cc1ccccc1)C(O)CN(Cc1ccc(-c2ccccn2)cc1)NC(=O)C(NC(=O)OC)C(C)(C)C)C(C)(C)C (centres unmarked) [Atanazavir]	0 (compounds with IC50 > 20 μM, percentage inhibition <80% at 20 µM or 50 μM, or percentage enzyme inhibition <50% at 10 µM were labelled as INACTIVE)
O=C(CCl)N1CCN(Cc2cc(Cl)cc(Cl)c2)CC1 [PAU-UNI-8cdd41c7-1]	1 (Compounds with IC50 < 10 µM or with a percentage of enzyme inhibition >50% at 10 µM were labelled as ACTIVE)
Cc1cccc(COc2cc(Cl)cc(-c3cc(-c4c[nH]c(=O)[nH]c4=O)cn(-c4cccnc4)c3=O)c2)c1 [compound 17]	1 (Compounds with IC50 < 10 µM or with a percentage of enzyme inhibition >50% at 10 µM were labelled as ACTIVE)
Cc1cc(C(=O)CN2CCCC2)c(C)n1-c1ccc(F)cc1 [IU1 S7134]	0 (compounds with IC50 > 20 μM, percentage inhibition <80% at 20 µM or 50 μM, or percentage enzyme inhibition <50% at 10 µM were labelled as INACTIVE)
